Reference: patent US9486440B2, “Uses of indole-ketones or indolidones as neuro-protective drugs” (UNIVERSITY OF MACAU, priority 2011, dated 2016)
Like-named read-outs stand apart in the source and are kept apart here.

Tests used:
SH-SY5Y cells = experiment: MPP+-induced neurotoxicity in SH-SY5Y cells, MTT assay; assay type: cell-based, human; settings: for cell proliferative or cytotoxic effects of the drug alone, SH-SY5Y cells: alone for 26 hours, 10 μM SU4312, 3 μM PTK787/ZK222584, 0.3 μM sunitinib; for toxicity to SH-SY5Y cells at higher concentration: higher concentration (sunitinib 1 μM), data not shown; for MPP+-induced neuronal death in SH-SY5Y cells (MTT): pre-treatment 2 hours, then 1 mM MPP+ for 24 hours
Procedure: The human neuroblastoma SH-SY5Y cells were obtained from ATCC. The cells were maintained in supplemented Dulbecco's modified eagle medium (DMEM), 10% fetal bovine serum, 100 U/ml penicillin, and 100 μg/ml streptomycin in a 37° C., 5% CO2 incubator. PC12 pheochromocytoma cells were also obtained from ATCC. The cells were cultured in medium that consisted of DMEM, 10% heat-inactivated horse serum, 5% fetal bovine serum, 100 U/ml penicillin, and 100 μg/ml streptomycin in a 37° C., 5% CO2 incubator. All experiments were carried out 48 hours after the cells were seeded. […] The assay was performed according to the specifications of the manufacturer (MTT kit I; Roche Applied Science). […] After the incubation, 100 μl of the solvating solution (0.01 N HCl in 10% SDS solution) was added to each well for 16-20 hours. Absorbance of the samples was measured at a wavelength of 570 nm with 655 nm as a reference wavelength. Unless otherwise indicated, the extent of MTT conversion in cells exposed to MPP^+ is expressed as a percentage of the control.

PC12 cells = experiment: MPP+-induced neurotoxicity in PC12 cells, MTT assay; assay type: cell-based; settings: for cell proliferative or cytotoxic effects of the drug alone, PC12 cells: alone for 26 hours, 10 μM SU4312, 3 μM PTK787/ZK222584; for toxicity to PC12 cells at higher concentration: data not shown; for MPP+-induced neuronal death in PC12 cells (MTT): pre-treatment 2 hours, then 1 mM MPP+ for 24 hours, SU4312 10 μM, PTK787/ZK222584 3 μM
Procedure: The human neuroblastoma SH-SY5Y cells were obtained from ATCC. The cells were maintained in supplemented Dulbecco's modified eagle medium (DMEM), 10% fetal bovine serum, 100 U/ml penicillin, and 100 μg/ml streptomycin in a 37° C., 5% CO2 incubator. PC12 pheochromocytoma cells were also obtained from ATCC. The cells were cultured in medium that consisted of DMEM, 10% heat-inactivated horse serum, 5% fetal bovine serum, 100 U/ml penicillin, and 100 μg/ml streptomycin in a 37° C., 5% CO2 incubator. All experiments were carried out 48 hours after the cells were seeded.
The percentage of surviving neurons in the presence of SU4312 and/or MPP^+ was estimated by determining the activity of mitochondrial dehydrogenases with 3(4,5-dimethylthiazol-2-yl)-2.5-diphenyltetrazolium bromide (MTT) assay (Li et al., 2007). The assay was performed according to the specifications of the manufacturer (MTT kit I; Roche Applied Science). Briefly, the neurons were cultured in 96-well plates, 10 μl of 5 mg/ml MTT labeling reagent was added to each well containing cells in 100 μl of medium, and the plates were incubated for 4 hours in a humidified incubator at 37° C. After the incubation, 100 μl of the solvating solution (0.01 N HCl in 10% SDS solution) was added to each well for 16-20 hours. Absorbance of the samples was measured at a wavelength of 570 nm with 655 nm as a reference wavelength. Unless otherwise indicated, the extent of MTT conversion in cells exposed to MPP^+ is expressed as a percentage of the control.

[1] = target: T1, recombinant human endothelial NOS (eNOS) (Homo sapiens, UniProt P29474); experiment: In vitro NOS activity assay, eNOS; assay type: biochemical; settings: PTK787/ZK222584 up to 1 mM
T1 construct: purchased Alexis Biochemicals (Lausen, Switzerland)
Procedure: In the in vitro NOS activity assay (Li et al., 2007), purified recombinant human nNOS, endothelial NOS (eNOS), and inducible NOS (iNOS) were bought from Alexis Biochemicals (Lausen, Switzerland). NOS activity was determined by monitoring the conversion of L-[3H]arginine to [3H]citrulline following the instructions provided in the kit (Calbiochem, USA). The reaction mixture contained a final volume of 40 μl with 25 mM Tris-Cl at pH 7.4, 3 μM tetrahydrobiopterin, 1 μM FAD, 1 μM FMN, 1 mM NADPH, 0.6 mM CaCl2, 0.1 μM calmodulin, 2.5 μg of pure NOS enzyme, 5 μl L-[3H]arginine (Perkin Elmer, Waltham, Mass., USA), and different concentrations of the tested reagents. The reaction mixture was incubated at 22° C. for 45 min. The reaction was quenched by adding 400 μl of stopping buffer (50 mM HEPES, pH 5.5, and 5 mM EDTA) for nNOS and eNOS reactions or by heating reactive tubes for iNOS. Unreacted L-[3H]arginine was then trapped by 100 μl of equilibrated resin provided in a spin cup followed by centrifugation for 30 s at 13,200 rpm. The filtrate was quantified by liquid scintillation counting.

VEGFR-2 = settings: cited from earlier work
CGNs = experiment: FDA/PI double staining of CGNs after MPP+; assay type: cell-based, rat; settings: 20 μM, 35 μM MPP+
Procedure: Viable granule neurons were stained with fluorescein formed from fluorescein diacetate (FDA), which is de-esterified only by living cells. Propidium iodide (PI) can penetrate cell membranes of dead cells to intercalate into double-stranded nucleic acids. Briefly, after incubation with 10 μg/ml FDA and 5 μg/ml PI for 15 min, the neurons were examined and photographed using UV light microscopy; and the pictures were compared with those photographed under phase contrast microscopy.
Viable granule neurons were stained with fluorescein formed from fluorescein diacetate (FDA) by esterase in viable cells. Propidium iodide (PI) can penetrate cell membranes of dead cells to intercalate into double-stranded nucleic acids. Briefly, after incubation with 10 μg/ml of FDA and 5 μg/ml of PI for 15 min, the neurons were examined and images were acquired using UV light microscopy for comparison with photos taken under phase contrast microscopy.

[2] = test system: DA neurons in the zebrafish brain; experiment: MPTP zebrafish, whole-mount immunostaining against tyrosine hydroxylase; assay type: in vivo; settings: 200 μM MPTP, 2 days from 1 dpf; SU4312 3-30 μM, PTK787/ZK222584 0.3-3 μM, SU5416 0.1-1 μM, VRI 0.03-0.3 μM
Procedure: Wild-type zebrafish (AB strain) and Tg (fli-1:EGFP) transgenic zebrafish were maintained as described in the Zebrafish Handbook (Westerfield, 1993). Zebrafish embryos were generated by natural pair-wise mating (3-12 months old) and raised at 28.5° C. in embryo medium (13.7 mM NaCl, 540 μM KCl, pH 7.4, 25 μM Na2HPO4, 44 μM KH2PO4, 300 μM CaCl2, 100 μM MgSO4, 420 μM NaHCO3, pH 7.4). […] An equal concentration of DMSO in embryo medium was used as vehicle control in each experiment.

| Compound | cell proliferative or cytotoxic effects of the drug alone, SH-SY5Y cells (SH-SY5Y cells) | toxicity to SH-SY5Y cells at higher concentration (SH-SY5Y cells) | MPP+-induced neuronal death in SH-SY5Y cells (MTT) (SH-SY5Y cells) | MPP+-induced neuronal death in SH-SY5Y cells (MTT) (SH-SY5Y cells; listed as PTK787) | cell proliferative or cytotoxic effects of the drug alone, PC12 cells (PC12 cells) | toxicity to PC12 cells at higher concentration (PC12 cells) | MPP+-induced neuronal death in PC12 cells (MTT) (PC12 cells) | inhibition of recombinant human eNOS [1] | IC50 (VEGFR-2) | IC50 (VEGFR-2; listed as PTK787) | loss of neurons and morphological alterations (FDA/PI, phase contrast) (CGNs) | MPTP-induced loss of DA neurons / decrease of TH+ region area [2] |
| --- | --- | --- | --- | --- | --- | --- | --- | --- | --- | --- | --- | --- |
| Clc1ccc(Nc2nnc(Cc3ccncc3)c3ccccc23)cc1 [PTK787/ZK222584] | did not show cell proliferative or cytotoxic effects | […] | at 3 μM failed to block neuronal loss induced by MPP^+ | at 1 and 3 μM failed to block neuronal loss induced by MPP^+ | did not show cell proliferative or cytotoxic effects | […] | at 3 μM failed to block neuronal loss induced by MPP^+ | did not inhibit any of the isoforms even at 1 mM | […] | […] | – | – |
| Cc1cc(C)c(/C=C2\C(=O)Nc3ccccc32)[nH]1 [SU5416, (3Z)-3-[(3,5-dimethyl-1H-pyrrol-2-yl)methylidene]-1,3-dihydro-2H-indol-2-one] | – | – | – | – | – | – | – | – | – | – | significantly blocked the loss of neurons and reversed the morphological alteration | significantly prevented the decrease in the area of TH^+ region induced by MPTP |
| CN(C)c1ccc(C=C2C(=O)Nc3ccccc32)cc1 [SU4312, 3-[4-(dimethylamino)benzylidenyl]indolin-2-one] | did not show cell proliferative or cytotoxic effects | at higher concentration conferred toxicity | prevented MPP^+-induced dopaminergic neuronal death at 3-10 μM in SH-SY5Y cells | – | did not show cell proliferative or cytotoxic effects | at higher concentration conferred toxicity | prevented MPP^+-induced dopaminergic neuronal death | no activity against eNOS | – | – | significantly blocked MPP^+-induced loss of neurons and reversed MPP^+-induced morphological alterations | significantly alleviated the loss of DA neurons |
